In PubChem BioAssay AID1919013 (Molecular Pharmacology Branch, DTP, NCI, 2023) one finds viability, T/C and IC50 data, which are given here for 2 compounds.

As usually defined, the viability, T/C is the ratio of treated to control. The pIC50 is the IC50 on a negative log10 scale, so that one unit is a factor of ten.

The subject of the test is LG0703-F498-PDC complex spheroid growth. Nature of the test: Anticancer human tumor LG0703-F498-PDC patient-derived lung adenocarcinoma cell line growth inhibition [AhR]. Conditions: for viability, T/C: stronger effect = lower value. In short, it runs like this:
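Complex tumor spheroids co-cultured with HUVEC and human MSC stroma; AhR antagonists tested in combination with standard-of-care and investigational agents. Top concentration at or near clinical Cmax (else 10 microM), half-log dilutions; growth expressed as percent test/control.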

pIC50: −log10 of the molar value. “And” between values parts separate entries of the source, which are not always exact repeats. Equal values may be shown once.
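Further: luminescence taken as a proxy for viable cell amount.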
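Wherever viability, T/C is given: percent of DMSO vehicle control where 100% means growth equal to vehicle.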

`O=C(C=Cc1cccc(S(=O)(=O)Nc2ccccc2)c1)NO`: the viability, T/C runs as follows: (compound 0.0316 µM) 101% and 111% and 110%; (compound 0.1 µM) 111% and 119% and 116%; (compound 0.316 µM) 94% and 91.7% and 82.7%; (compound 1 µM) 48.1% and 42% and 45.8%; (compound 3.16 µM) 12% and 11.7% and 7.36%; (compound 10 µM) 1.95% and 2.42% and 1.39%. Moreover, the negative logarithm of the IC50 (pIC50) (curve of compound) was 6.02 and 6.08.

On to `Nc1ncn(C2CC(O)C(CO)S2)c(=O)n1` (configuration not stated) + Cc1cncc(-c2nc(NCCc3c[nH]c4ccccc34)c3ncn(C(C)C)c3n2)c1, for which the negative logarithm of the IC50 (pIC50) was below 6.52 (curve of first compound, second compound 0.1 µM); below 6.52 (curve of first compound, second compound 0.316 µM); below 6.52 (curve of first compound, second compound 1 µM); above 9.02 (curve of first compound, second compound 3.16 µM); above 9.02 (curve of first compound, second compound 10 µM). Moreover, the viability, T/C was 107% (second compound 0.1 µM, first compound 0.000949 µM); 109% (second compound 0.1 µM, first compound 0.003 µM); 91.9% (second compound 0.1 µM, first compound 0.00949 µM); 98.4% (second compound 0.1 µM, first compound 0.03 µM); 104% (second compound 0.1 µM, first compound 0.0949 µM); 105% (second compound 0.1 µM, first compound 0.3 µM). The viability, T/C is, setting by setting: (second compound 0.316 µM, first compound 0.000949 µM) 117%; (second compound 0.316 µM, first compound 0.003 µM) 107%; (second compound 0.316 µM, first compound 0.00949 µM) 108%; (second compound 0.316 µM, first compound 0.03 µM) 115%; (second compound 0.316 µM, first compound 0.0949 µM) 109%; (second compound 0.316 µM, first compound 0.3 µM) 99.1%. Also, the viability, T/C (second compound 1 µM, first compound 0.000949 µM) was 87.3%; the viability, T/C (second compound 1 µM, first compound 0.003 µM) is 89.1%; the viability, T/C (second compound 1 µM, first compound 0.00949 µM) was 78.2%; the viability, T/C (second compound 1 µM, first compound 0.03 µM) was 86.3%; the viability, T/C (second compound 1 µM, first compound 0.0949 µM) was 94.4%; the viability, T/C (second compound 1 µM, first compound 0.3 µM) is 103%. The viability, T/C reads like this: (second compound 3.16 µM, first compound 0.000949 µM) 3.25%; (second compound 3.16 µM, first compound 0.003 µM) 3.89%; (second compound 3.16 µM, first compound 0.00949 µM) 4.63%; (second compound 3.16 µM, first compound 0.03 µM) 5.24%; (second compound 3.16 µM, first compound 0.0949 µM) 2.89%; (second compound 3.16 µM, first compound 0.3 µM) 4.14%. The viability, T/C is, setting by setting: (second compound 10 µM, first compound 0.000949 µM) 1.24%; (second compound 10 µM, first compound 0.003 µM) 0.8%; (second compound 10 µM, first compound 0.00949 µM) 1.81%; (second compound 10 µM, first compound 0.03 µM) 1.01%; (second compound 10 µM, first compound 0.0949 µM) 1.6%; (second compound 10 µM, first compound 0.3 µM) 1.59%.
